Active and inactive are the calls of the source. The rule behind the calls is not given here.
Assays:
Format in all cases: cell-based
[1] = biological target: T1, Sodium-dependent dopamine transporter (Homo sapiens, UniProt Q01959); test: Inhibition of [3H]dopamine uptake at human DAT expressed in mouse N2A cells
[2] = biological target: T1, Sodium-dependent dopamine transporter; test: Displacement of [3H]WIN-35428 from human DAT stably expressed in mouse N2A cells by scintillation countnig
[3] = biological target: T1, Sodium-dependent dopamine transporter; test: Binding affinity to human DAT expressed in UV irradiated mouse N2A cells by photoaffinity labeling assay; conditions: tested as the 125I-labelled form

T1 sequence (Q01959 whole entry): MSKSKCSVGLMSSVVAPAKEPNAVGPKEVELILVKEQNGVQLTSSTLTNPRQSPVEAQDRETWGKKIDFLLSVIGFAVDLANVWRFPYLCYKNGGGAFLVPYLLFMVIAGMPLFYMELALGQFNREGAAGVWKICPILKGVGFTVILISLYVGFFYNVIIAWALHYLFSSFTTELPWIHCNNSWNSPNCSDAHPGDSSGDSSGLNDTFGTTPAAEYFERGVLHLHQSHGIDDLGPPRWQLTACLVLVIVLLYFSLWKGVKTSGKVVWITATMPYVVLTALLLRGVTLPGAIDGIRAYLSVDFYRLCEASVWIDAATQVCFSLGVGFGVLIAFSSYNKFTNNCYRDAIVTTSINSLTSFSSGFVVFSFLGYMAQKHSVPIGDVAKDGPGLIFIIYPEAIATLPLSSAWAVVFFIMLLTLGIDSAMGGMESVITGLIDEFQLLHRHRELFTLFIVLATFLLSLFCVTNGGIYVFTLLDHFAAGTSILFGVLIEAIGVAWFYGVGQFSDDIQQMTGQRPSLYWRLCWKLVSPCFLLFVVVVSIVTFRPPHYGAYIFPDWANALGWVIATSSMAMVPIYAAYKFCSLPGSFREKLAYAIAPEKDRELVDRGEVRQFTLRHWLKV

`COC(=O)[C@H](c1ccc(I)cc1)[C@H]1CCCCN1` (racemic) was tested, and the IC50 [1] was 0.011 µM and the Ki [2] was 0.014 µM.
`COC(=O)[C@H](c1cccc(I)c1)[C@H]1CCCCN1` (racemic) was tested, and the IC50 [1] was 0.014 µM and the Ki [2] was 0.0045 µM.
For `COC(=O)[C@H](c1ccc(I)cc1)[C@H]1CCCCN1Cc1ccc(N=[N+]=[N-])cc1` (racemic), the IC50 [1] was 2.76 µM, the Activity [3] was “Active” and the Ki [2] was 0.363 µM.
In the case of `COC(=O)[C@H](c1ccc(I)cc1)[C@H]1CCCCN1Cc1cccc(N=[N+]=[N-])c1` (racemic), the IC50 [1] is reported as 7.97 µM and the Ki [2] is reported as 2.75 µM.
Work on `COC(=O)[C@H](c1ccc(I)cc1)[C@H]1CCCCN1Cc1ccccc1N=[N+]=[N-]` (racemic) yielded an IC50 [1] of 1.23 µM and a Ki [2] of 0.517 µM.
Work on `COC(=O)[C@H](c1cccc(I)c1)[C@H]1CCCCN1Cc1ccc(N=[N+]=[N-])cc1` (racemic) yielded an IC50 [1] of 1.83 µM and a Ki [2] of 0.658 µM.
Compound `COC(=O)[C@H](c1cccc(I)c1)[C@H]1CCCCN1Cc1cccc(N=[N+]=[N-])c1` (racemic) has an IC50 [1] of 4.63 µM and a Ki [2] of 2.06 µM.
`COC(=O)[C@H](c1cccc(I)c1)[C@H]1CCCCN1Cc1ccccc1N=[N+]=[N-]` (racemic) showed an IC50 [1] of 2.7 µM and a Ki [2] of 1.11 µM.
